# In US20240217978A1 (CHONG KUN DANG PHARMACEUTICAL CORP., priority 2021, published 2024):
# Molecular target: human adenosine A2a receptor (Homo sapiens (Human), UniProt P29274)
# Assay: A2a receptor binding affinity, [3H]-NECA radioligand binding test
# Details: [3H]-NECA 37 nM; membrane from HEK-293 cells transfected with human adenosine A2a receptor
# How it was run: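 Membranes from HEK-293 cells expressing human A2a receptor were incubated with [3H]-NECA (final 37 nM) and compound for 1 h at room temperature in 50 mM Tris, 10 mM MgCl2, 1 mM EDTA, pH 7.4. Bound ligand was filtered on PEI-coated plates and counted by scintillation to derive IC50 (μM).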
# Chain of human adenosine A2a receptor (P29274 whole entry): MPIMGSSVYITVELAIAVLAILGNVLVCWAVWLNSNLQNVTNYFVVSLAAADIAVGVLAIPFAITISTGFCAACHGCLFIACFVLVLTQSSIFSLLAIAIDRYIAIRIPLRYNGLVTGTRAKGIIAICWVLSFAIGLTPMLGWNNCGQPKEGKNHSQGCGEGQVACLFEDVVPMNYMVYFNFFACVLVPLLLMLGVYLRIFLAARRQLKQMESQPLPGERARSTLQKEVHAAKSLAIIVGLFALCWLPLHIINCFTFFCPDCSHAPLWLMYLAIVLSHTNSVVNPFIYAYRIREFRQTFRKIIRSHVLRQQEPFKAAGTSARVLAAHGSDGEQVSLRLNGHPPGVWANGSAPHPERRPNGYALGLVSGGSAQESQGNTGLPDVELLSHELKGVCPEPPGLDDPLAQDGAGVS
row,SMILES,IC50 [nM]
1,"Nc1nc(N2CCC[C@H]2C(=O)N2CCN(S(=O)(=O)CC3CC3)CC2)nc2nc(-c3ccco3)nn12 [Example 68, (S)-(1-(7-amino-2-(furan-2-yl)-[1,2,4]triazolo[1,5-a][1,3,5]triazin-5-yl)pyrrolidin-2-yl)(4-((cyclopropylmethyl)sulfonyl)piperazin-1-yl)methanone]",9
2,"CCCCN1CCN(C(=O)[C@@H]2CCCN2c2nc(N)c3nc(-c4ccc(C)o4)sc3n2)CC1 [Example 243, (S)-(1-(7-amino-2-(5-methylfuran-2-yl)thiazolo[5,4-d]pyrimidin-5-yl)pyrrolidin-2-yl)(4-butylpiperazin-1-yl)methanone]",14
3,"Nc1nc(N2CCC[C@H]2C(=O)N2CC3CCC(C2)N3C(=O)c2ccccc2)nc2nc(-c3ccco3)nn12 [Example 157, (3-((7-amino-2-(furan-2-yl)-[1,2,4]triazolo[1,5-a][1,3,5]triazin-5-yl)-L-prolyl)-3,8-diazabicyclo[3.2.1]octan-8-yl)(phenyl)methanone]",6
4,"C[C@H](Nc1nc(N)n2nc(-c3ccco3)nc2n1)C(=O)N1CCC2(CC1)CN(Cc1ccc(F)cc1F)C2 [Example 31, (S)-2-((7-amino-2-(furan-2-yl)-[1,2,4]triazolo[1,5-a][1,3,5]triazin-5-yl)amino)-1-(2-(2,4-difluorobenzyl)-2,7-diazaspiro[3.5]nonan-7-yl)propan-1-one]",1
5,"Cc1ccc(-c2nc3nc(N4CCC[C@H]4C(=O)N4CCN(CC(F)(F)F)C[C@H]4C)nc(N)n3n2)o1 [Example 196, ((S)-1-(7-amino-2-(5-methylfuran-2-yl)-[1,2,4]triazolo[1,5-a][1,3,5]triazin-5-yl)pyrrolidin-2-yl)((R)-2-methyl-4-(2,2,2-trifluoroethyl)piperazin-1-yl)methanone]",8
6,"C[C@@H]1CN(Cc2ccc(F)cc2F)CCN1C(=O)[C@@H]1CCCN1c1nc(N)n2nc(-c3ccco3)nc2n1 [Example 51, ((S)-1-(7-amino-2-(furan-2-yl)-[1,2,4]triazolo[1,5-a][1,3,5]triazin-5-yl)pyrrolidin-2-yl)((R)-4-(2,4-difluorobenzyl)-2-methylpiperazin-1-yl)methanone]",13
7,"C[C@H](Nc1nc(N)n2nc(-c3ccco3)nc2n1)C(=O)N1CCN(c2nccs2)CC1 [Example 251, (S)-2-((7-amino-2-(furan-2-yl)-[1,2,4]triazolo[1,5-a][1,3,5]triazin-5-yl)amino)-1-(4-(thiazol-2-yl)piperazin-1-yl)propan-1-one]",13
8,"COCCN1CCC(C2CCN(C(=O)[C@@H]3CCCN3c3nc(N)n4nc(-c5ccco5)nc4n3)CC2)CC1 [Example 266, (S)-(1-(7-amino-2-(furan-2-yl)-[1,2,4]triazolo[1,5-a][1,3,5]triazin-5-yl)pyrrolidin-2-yl)(1′-(2-methoxyethyl)-[4,4′-bipiperidin]-1-yl) methanone]",15
9,"Nc1nc(N2CCC[C@H]2C(=O)N2CCC(c3ccccc3)CC2)nc2nc(-c3ccco3)nn12 [Example 128, (S)-(1-(7-amino-2-(furan-2-yl)-[1,2,4]triazolo[1,5-a][1,3,5]triazin-5-yl)pyrrolidin-2-yl)(4-phenylpiperidin-1-yl)methanone]",3
10,"CCC1CCC(N2CCN(C(=O)[C@@H]3CCCN3c3nc(N)n4nc(-c5ccco5)nc4n3)CC2)CC1 (stereo partly drawn) [Example 152, (S)-(1-(7-amino-2-(furan-2-yl)-[1,2,4]triazolo[1,5-a][1,3,5]triazin-5-yl)pyrrolidin-2-yl)(4-(4-ethylcyclohexyl)piperazin-1-yl) methanone]",19
11,"CC[C@H](Nc1nc(N)n2nc(-c3ccco3)nc2n1)C(=O)N1CCN(c2nccs2)CC1 [Example 248, (S)-2-((7-amino-2-(furan-2-yl)-[1,2,4]triazolo[1,5-a][1,3,5]triazin-5-yl)amino)-1-(4-(thiazol-2-yl)piperazin-1-yl)butan-1-one]",13
12,"CC[C@H](Nc1nc(N)n2nc(-c3ccco3)nc2n1)C(=O)N1CCN(CC(F)(F)F)CC1 [Example 211, (S)-2-((7-amino-2-(furan-2-yl)-[1,2,4]triazolo[1,5-a][1,3,5]triazin-5-yl)amino)-1-(4-(2,2,2-trifluoroethyl)piperazin-1-yl)butan-1-one]",15
13,"Nc1nc(N[C@@H](CO)C(=O)N2CCN(c3ncccn3)CC2)nc2nc(-c3ccco3)nn12 [Example 235, (S)-2-((7-amino-2-(furan-2-yl)-[1,2,4]triazolo[1,5-a][1,3,5]triazin-5-yl)amino)-3-hydroxy-1-(4-(pyrimidin-2-yl)piperazin-1-yl)propan-1-one]",10
14,"Nc1nc(N2CCC[C@H]2C(=O)N2CCC(F)(F)CC2)nc2nc(-c3ccco3)nn12 [Example 55, (S)-(1-(7-amino-2-(furan-2-yl)-[1,2,4]triazolo[1,5-a][1,3,5]triazin-5-yl)pyrrolidin-2-yl)(4,4-difluoropiperidin-1-yl)methanone]",16
15,"CCC(F)(CC)CN1CCN(C(=O)[C@@H]2CCCN2c2nc(N)n3nc(-c4ccco4)nc3n2)CC1 [Example 43, (S)-(1-(7-amino-2-(furan-2-yl)-[1,2,4]triazolo[1,5-a][1,3,5]triazin-5-yl)pyrrolidin-2-yl)(4-(2-ethyl-2-fluorobutyl)piperazin-1-yl)methanone]",11
16,"Nc1nc(N2CCC[C@H]2C(=O)N2CCN(c3ccc(F)cc3)C(=O)C2)nc2nc(-c3ccco3)nn12 [Example 236, 4-((7-amino-2-(furan-2-yl)-[1,2,4]triazolo[1,5-a][1,3,5]triazin-5-yl)-L-prolyl)-1-(4-fluorophenyl)piperazin-2-one]",2
17,"CC(C)(C)N1CCN(C(=O)[C@@H]2CCCN2c2nc(N)n3nc(-c4ccco4)nc3n2)CC1 [Example 137, (S)-(1-(7-amino-2-(furan-2-yl)-[1,2,4]triazolo[1,5-a][1,3,5]triazin-5-yl)pyrrolidin-2-yl)(4-(tert-butyl)piperazin-1-yl)methanone]",48
18,"CCCC[C@H](Nc1nc(N)n2nc(-c3ccco3)nc2n1)C(=O)N1CCN(CC(F)(F)F)CC1 [Example 213, (S)-2-((7-amino-2-(furan-2-yl)-[1,2,4]triazolo[1,5-a][1,3,5]triazin-5-yl)amino)-1-(4-(2,2,2-trifluoroethyl)piperazin-1-yl)hexan-1-one]",7

# More lines, now with the values ahead:
row,IC50 [nM],SMILES
1,13,"CC(F)(F)CN1CCC2(CC1)CN(C(=O)[C@@H]1CCCN1c1nc(N)n3nc(-c4ccco4)nc3n1)C2 [Example 365, (S)-(1-(7-amino-2-(furan-2-yl)-[1,2,4]triazolo[1,5-a][1,3,5]triazin-5-yl)pyrrolidin-2-yl)(7-(2,2-difluoropropyl)-2,7-diazaspiro[3-5]nonan-2-yl)methanone]"
2,6,"CC(C)(F)CN1CCN(C(=O)[C@@H]2CCCN2c2cc3nc(-c4ccco4)nn3c(N)n2)CC1 [Example 352, (S)-(1-(5-amino-2-(furan-2-yl)-[1,2,4]triazolo[1,5-c]pyrimidin-7-yl)pyrrolidin-2-yl)(4-(2-fluoro-2-methylpropyl)piperazin-1-yl)methanone]"
3,13,"C[C@H](Nc1nc(N)n2nc(-c3ccco3)nc2n1)C(=O)N1CCC(C2CCN(CC(F)F)CC2)CC1 [Example 334, (S)-2-((7-amino-2-(furan-2-yl)-[1,2,4]triazolo[1,5-a][1,3,5]triazin-5-yl)amino)-1-(1′-(2,2-difluoroethyl)-[4,4′-bipiperidin]-1-yl)propan-1-one]"
4,8,"C[C@H](Nc1nc(N)n2nc(-c3ccco3)nc2n1)C(=O)N1CC2(CCN(CC(C)(F)F)CC2)C1 [Example 366, (S)-2-((7-amino-2-(furan-2-yl)-[1,2,4]triazolo[1,5-a][1,3,5]triazin-5-yl)amino)-1-(7-(2,2-difluoropropyl)-2,7-diazaspiro[3-5]nonan-2-yl)propan-1-one]"
5,3,"CCCCCCN1CCN(C(=O)[C@@H]2CCCN2c2nc(N)n3nc(-c4ccco4)nc3n2)CC1 [Example 301, (S)-(1-(7-amino-2-(furan-2-yl)-[1,2,4]triazolo[1,5-a][1,3,5]triazin-5-yl)pyrrolidin-2-yl)(4-hexylpiperazin-1-yl)methanone]"
6,9,"Nc1nc(N2CCC[C@H]2C(=O)N2CCC(C3CCN(CC(F)(F)C(F)F)CC3)CC2)nc2nc(-c3ccco3)nn12 [Example 289, (S)-(1-(7-amino-2-(furan-2-yl)-[1,2,4]triazolo[1,5-a][1,3,5]triazin-5-yl)pyrrolidin-2-yl)(1′-(2,2,3,3-tetrafluoropropyl)-[4,4′-bipiperidin]-1-yl)methanone]"
7,11,"CCCCN1CCN(C(=O)[C@H](COC)Nc2nc(N)n3nc(-c4ccco4)nc3n2)CC1 [Example 401, (S)-2-((7-amino-2-(furan-2-yl)-[1,2,4]triazolo[1,5-a][1,3,5]triazin-5-yl)amino)-1-(4-butylpiperazin-1-yl)-3-methoxypropan-1-one]"
8,1,"C[C@H](Nc1nc(N)n2nc(-c3ccco3)nc2n1)C(=O)N1CCC(C2CCN(CC(C)(F)F)CC2)CC1 [Example 335, (S)-2-((7-amino-2-(furan-2-yl)-[1,2,4]triazolo[1,5-a][1,3,5]triazin-5-yl)amino)-1-(1′-(2,2-difluoropropyl)-[4,4′-bipiperidin]-1-yl)propan-1-one]"
9,11,"CC(C)(O)CC(=O)N1CCC(C2CCN(C(=O)[C@@H]3CCN3c3nc(N)n4nc(-c5ccco5)nc4n3)CC2)CC1 [Example 327, (S)-1-(1′-(1-(7-amino-2-(furan-2-yl)-[1,2,4]triazolo[1,5-a][1,3,5]triazin-5-yl)azetidine-2-carbonyl)-[4,4′-bipiperidin]-1-yl)-3-hydroxy-3-methylbutan-1-one]"
10,30,"Nc1nc(N2CCC[C@H]2C(=O)N2CCC3(CC2)CN(CC(F)(F)F)C3)nc2nc(-c3ccco3)nn12 [Example 362, (S)-(1-(7-amino-2-(furan-2-yl)-[1,2,4]triazolo[1,5-a][1,3,5]triazin-5-yl)pyrrolidin-2-yl)(2-(2,2,2-trifluoroethyl)-2,7-diazaspiro[3.5]nonan-7-yl)methanone]"
